According to patent publication US6353001B1, “2-nitromethylidene/2-cyanimino/2-nitro-imino-pyrrolidines and piperidines, intermediates, and their use as pesticides” (Syngenta Investment Corporation, priority 1993, dated 2002):
One block for each molecule: values may come before it.

Tests used:
[1] = tested on: Plutella xylostella; test: Action against Plutella xylostella caterpillars; assay type: in vivo; details: 72 h, 400 ppm spray on young cabbage plants, 10 caterpillars in the third stage, evaluation 3 days later, read-out: percentage reduction in the population and percentage reduction in feeding damage (% activity)
Procedure: (§1) Action against Plutella xylostella caterpillars Young cabbage plants are sprayed with an aqueous emulsion comprising 400 ppm of test compound. After the spray coating has dried, the cabbage plants are populated with 10 Plutella xylostella caterpillars in the third stage and placed in a plastics container. Evaluation is made 3 days later. The percentage reduction in the population and the percentage reduction in feeding damage (% activity) are determined by comparing the number of dead caterpillars and the feeding damage on the treated plants with that on untreated plants.

[2] = tested on: Myzus persicae; test: Action against Myzus persicae (sprayed pea seedlings); assay type: in vivo; details: 400 ppm spray on infested pea seedlings, 20°, evaluation 3 to 7 days later, read-out: percentage reduction in the population (% activity)
Procedure: (§2) Action against Myzus persicae Pea seedlings are infested with Myzus persicae, then sprayed with a spray mixture comprising 400 ppm of test compound and then incubated at 20°. Evaluation is made 3 to 7 days later. The percentage reduction in the population (% activity) is determined by comparing the number of dead aphids on the treated plants with that on untreated plants.

[3] = tested on: Ctenocephalides felis; test: Systemic action against Ctenocephalides felis (membrane blood feeding); assay type: in vivo; details: 50 ppm in blood, 37°, 20 adult fleas, evaluation 24 and 48 hours, read-out: percentage reduction in the population (% activity)
Procedure: Systemic action against Ctenocephalides felis 20 adult fleas of the Ctenocephalides felis species are placed in a flat round cage closed on both sides with gauze. A vessel sealed on the underside with a parafilm membrane is placed on the cage. The vessel contains blood comprising 50 ppm of test compound and maintained at a constant 37°. The fleas ingest the blood through the membrane. Evaluation is made 24 and 48 hours after the start of the test. The percentage reduction in the population (% activity) is determined by comparing the number of dead Ctenocephalides felis fleas when treated blood is used with that when untreated blood is used. The blood is replaced by fresh treated blood 24 hours after treatment.

[4] = tested on: Nephotettix cincticeps; test: Action against Nephotettix cincticeps (sprayed rice plants); assay type: in vivo; details: 504 h, 400 ppm spray on rice plants, larvae in the 2nd and 3rd stages, evaluation 21 days later, read-out: percentage reduction in the population (% activity)
Procedure: Action against Nephotettix cincticeps Rice plants are sprayed with an aqueous emulsion comprising 400 ppm of test compound. After the spray coating has dried, the plants are populated with Nephotettix cincticeps larvae in the 2nd and 3rd stages. Evaluation is made 21 days later. The percentage reduction in the population (% activity) is determined by comparing the number of surviving leaf hoppers on the treated plants with that on untreated plants.

[5] = tested on: Nilaparvata lugens; test: Action against Nilaparvata lugens (sprayed rice plants); assay type: in vivo; details: 504 h, 400 ppm spray on rice plants, larvae in the 2nd and 3rd stages, evaluation 21 days later, read-out: percentage reduction in the population (% activity)
Procedure: Action against Nilaparvata lugens Rice plants are sprayed with an aqueous emulsion comprising 400 ppm of test compound. After the spray coating has dried, the rice plants are populated with Nilaparvata lugens larvae in the 2nd and 3rd stages. Evaluation is made 21 days later. The percentage reduction in the population (% activity) is determined by comparing the number of surviving plant hoppers on the treated plants with that on untreated plants.

[6] = tested on: Anthonomus grandis; test: Action against Anthonomus grandis (sprayed cotton plants); assay type: in vivo; details: 72 h, 400 ppm spray on young cotton plants, 10 adults, evaluation 3 days later, read-out: percentage reduction in the population and percentage reduction in feeding damage (% activity)
Procedure: as §1, with “Anthonomus […]” for “Plutella xylostella caterpillars”, “cotton” for “cabbage”, “the” for “the cabbage”, “Anthonomus grandis adults” for “Plutella xylostella caterpillars in the third stage”, “beetles” for “caterpillars”

[7] = tested on: Heliothis virescens; test: Action against Heliothis virescens (sprayed soybean plants); assay type: in vivo; details: 144 h, 400 ppm spray on young soybean plants, 10 caterpillars in the first stage, evaluation 6 days later, read-out: percentage reduction in the population and percentage reduction in feeding damage (% activity)
Procedure: as §1, with “against Heliothis virescens” for “against Plutella xylostella caterpillars”, “Young soybean” for “Young cabbage”, “the” for “the cabbage”, “10 Heliothis virescens” for “10 Plutella xylostella”, “the first” for “the third”, “made 6” for “made 3”

[8] = tested on: Aphis craccivora; test: Action against Aphis craccivora (sprayed pea seedlings); assay type: in vivo; details: 400 ppm spray on infested pea seedlings, 20° C., evaluation 3 to 7 days later, read-out: percentage reduction in the population (% activity)
Procedure: as §2, with “Aphis craccivora” for “Myzus persicae”, “Aphis craccivora,” for “Myzus persicae,”, “20° C.” for “20°.”, “Aphis craccivora individuals” for “aphids”

[9] = tested on: Myzus persicae; test: Systemic action against Myzus persicae (roots in spray mixture); assay type: in vivo; details: systemic: pea seedling roots in 400 ppm spray mixture, 20° C., evaluation 3 to 7 days later, read-out: percentage reduction in the population (% activity)
Procedure: Systemic action against Myzus persicae Pea seedlings are infested with Myzus persicae, then placed with their roots in a spray mixture comprising 400 ppm of test compound and then incubated at 20° C. Evaluation is made 3 to 7 days later. The percentage reduction in the population (% activity) is determined by comparing the number of dead aphids on the treated plants with that on untreated plants.

[10] = tested on: Diabrotica balteata; test: Action against Diabrotica balteata (sprayed maize seedlings); assay type: in vivo; details: 144 h, 400 ppm spray on maize seedlings, 10 larvae in the second stage, evaluation 6 days later, read-out: percentage reduction in the population (% activity)
Procedure: Action against Diabrotica balteata Maize seedlings are sprayed with an aqueous emulsion comprising 400 ppm of test compound. After the spray coating has dried, the seedlings are populated with 10 Diabrotica balteata larvae in the second stage and placed in a plastics container. Evaluation is made 6 days later. The percentage reduction in the population (% activity) is determined by comparing the number of dead larvae on the treated plants with that on untreated plants.

melting point: 159 to 161 °C
Compound: O=[N+]([O-])/C=C1\NCCC1Cc1ccc(Cl)nc1 (stereo not shown) [Compound 5.3, 3-(2-Chloropyrid-5-yl-methyl)2-nitromethylidene-pyrrolidine]
inhibition at 400 ppm [1]: > 80%
inhibition at 400 ppm [2]: > 80%
inhibition at 50 ppm [3]: > 80%
inhibition at 400 ppm [4]: > 80%
inhibition at 400 ppm [5]: > 80%
inhibition at 400 ppm [6]: > 80%
inhibition at 400 ppm [7]: > 80%
inhibition at 400 ppm [8]: > 80%
inhibition at 400 ppm [9]: > 80%

Compound: CN1CCC(Cc2ccc(Cl)nc2)/C1=C/[N+](=O)[O-] (stereo not shown) [Compound 5.4, 3-(2-Chloropyrid-5-yl-methyl)-1methyl-2-nitromethylidene-pyrrolidine]
inhibition at 400 ppm [2]: > 80%
inhibition at 400 ppm [4]: > 80%
inhibition at 400 ppm [5]: > 80%
inhibition at 400 ppm [6]: > 80%
inhibition at 400 ppm [9]: > 80%

Compound: CCN1CCC(Cc2ccc(Cl)nc2)/C1=C/[N+](=O)[O-] (stereo not shown) [Compound 5.5, 3-(2-Chloropyrid-5-yl-methyl)-1-ethyl-2-nitromethylidene-pyrrolidine]
inhibition at 400 ppm [4]: > 80%

melting point: 179 to 181 °C
Compound: O=[N+]([O-])C=C1NCCCC1Cc1ccc(Cl)nc1 (stereo not shown) [Compound 5.16, 3-(2-chloropyrid-5-yl-methyl)-2-nitromethylidene-piperidine]
inhibition at 400 ppm [2]: > 80%
inhibition at 400 ppm [10]: > 80%
